Test results reported in publication PMC10634319 (Biochemistry, 2023).

Tests used:
human ABCB10 [1] = target: T1, human ABCB10 (Homo sapiens, UniProt Q9NRK6); assay: ATPase activity, malachite green phosphate assay; format: biochemical
T1 sequence (Q9NRK6 152-738): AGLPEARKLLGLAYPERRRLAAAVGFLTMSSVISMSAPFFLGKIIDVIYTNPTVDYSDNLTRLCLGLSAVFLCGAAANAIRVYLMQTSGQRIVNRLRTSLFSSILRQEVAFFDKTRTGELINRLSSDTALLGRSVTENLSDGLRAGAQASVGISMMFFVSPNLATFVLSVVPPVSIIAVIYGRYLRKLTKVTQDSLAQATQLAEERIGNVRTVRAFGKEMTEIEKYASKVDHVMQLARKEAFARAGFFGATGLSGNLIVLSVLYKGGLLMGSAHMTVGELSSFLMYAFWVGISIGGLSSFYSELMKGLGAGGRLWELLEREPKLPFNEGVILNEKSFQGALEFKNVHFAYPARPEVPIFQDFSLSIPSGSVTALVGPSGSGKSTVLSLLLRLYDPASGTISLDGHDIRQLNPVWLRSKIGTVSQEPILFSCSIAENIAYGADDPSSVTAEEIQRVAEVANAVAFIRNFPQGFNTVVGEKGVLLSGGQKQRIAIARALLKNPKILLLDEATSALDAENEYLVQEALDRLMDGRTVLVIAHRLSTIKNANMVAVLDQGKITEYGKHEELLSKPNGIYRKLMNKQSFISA

human ABCB10 [2] = target: T1, human ABCB10; conditions: 0.3 μM protein, 0-2000 μM ATP, 5 mM MgCl2, 37 °C, no added lipid

SMILES	IC50 (human ABCB10 [1])	KM (human ABCB10 [2])
CCCCCCCC/C=C\CCCCCCCC(=O)OC[C@H](COP(=O)(O)OCC(O)COP(=O)(O)OC[C@@H](COC(=O)CCCCCCC/C=C\CCCCCCCC)OC(=O)CCCCCCC/C=C\CCCCCCCC)OC(=O)CCCCCCC/C=C\CCCCCCCC (some centres unmarked) [TOCDL, 1,1′,2,2′-tetraoleoyl-cardiolipin]	~10 µM	–
Nc1ncnc2c1ncn2[C@@H]1O[C@H](COP(=O)(O)OP(=O)(O)OP(=O)(O)O)[C@@H](O)[C@H]1O [ATP]	–	Michaelis–Menten equation was fitted to the initial rates to determine the Michaelis constant (KM)
